Consider six compounds from US12570657B2, “Mesylate salts of heterocyclic cytokinins, compositions containing these derivatives and use thereof” (UNIVERZITA PALACKEHO V OLOMOUCI, priority 2020, dated 2026).

For one test, the system named is NIH-3T3. Put plainly: In vitro cytotoxicity, Calcein AM assay, NIH-3T3. Type of test: cell-based. As to conditions: Mus musculus, NIH3T3, 72 h, 3-day Calcein-AM assay. An excerpt:
Because toxic compounds adversely affect cell metabolic processes, many standard cytotoxicity assays are based on measuring the rate of metabolism of various artificial substrates. The resulting product is then quantified, for example, by spectrometry. Assays can be easily modified for use in 96-well plates, A microtiter assay based on the quantification of Calcein AM metabolism was used to evaluate the cytotoxicity of cytokinins, for example meta-topolin, ortho-topolin, kinetin, BAP or its mesylate salts, but also a number of other cytokinin mesylate derivatives according to the invention. The test is widely used in drug screening programs and in chemosensitivity testing. In living cells, Calcein AM is enzymatically hydrolyzed and the accumulation of the resulting calcein is manifested by green fluorescence. The following cell lines—RPMI 8226 (multiple myeloma), CEM (T-lymphoblastic leukemia), K562 (chronic myeloid leukemia), HL-60 (promyelocytic, leukemia), MCF-7 (breast adenocarcinoma), HeLa (cervical cancer), G361 (malignant melanoma), HOS (human osteosarcoma) and BJ (human foreskin fibroblasts)—were obtained from the American Type Culture Collection (Manassas, VA, USA). These cells were maintained in standard DMEM or RPMI medium (Sigma, MO, USA) supplemented with heat-inactivated fetal bovine serum (10%) with 2 mM L-glutamine and penicillin-streptomycin (1%) under standard cell culture conditions (37° C., 5% CO2 in a humid environment) and subcultured two or three times a week using a standard trypsinization procedure. Approximately 10,000 cells in 80 μl of medium were seeded in a 96-well microtiter plate. After 12 hours of incubation, the compounds to be tested were added in 20 μl aliquots. Control cultures were treated with DMSO alone. […] Serial, 3-fold dilutions (six in total, peak concentrations in 166 μM incubations) of each compound were tested. After 72 hours of incubation, Calcein AM solution (Molecular Probes) was added to a final concentration of 1 μg/ml and the cells were incubated for another hour. Free calcein fluorescence was then quantified using a Fluoroscan Ascent fluorometer (Microsystems), and the percentage of surviving cells in each well was calculated by dividing the OD obtained from each cell by the exposed cells by the mean OD obtained from control wells×100%, Finally, IC50 values (concentration causing a 50% decrease in cellular esterase activity) were calculated for each compound generated from dose-response curves (Krys̆tof et al., 2005, Bioorg. Med. Chem. Lett. 12, 3283-3286). The IC50 values reported here are averages obtained from at least three independent experiments, where the individual replication values fell within 20% of the average. […]

Test [1] deals with CEM (T-lymphoblastic leukemia). Put plainly: In vitro cytotoxicity, Calcein AM assay, CEM. As to conditions: 72 h, 3-day Calcein-AM assay. Type of test: cell-based. The gist of the method: (§1)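 Cytotoxicity is scored as loss of Calcein AM metabolism: viable cells hydrolyse the dye to fluorescent calcein. Compounds act for 72 h on cells seeded 12 h earlier in serum-supplemented medium, and the dye (1 μg/ml final) is loaded for the last hour.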

Test [2] deals with MCF-7 (breast adenocarcinoma). Put plainly: In vitro cytotoxicity, Calcein AM assay, MCF7. Type of test: cell-based. As to conditions: Homo sapiens, MCF7, 72 h, 3-day Calcein-AM assay. In short, it runs like this: as §1
The subject of a further test is HOS (human osteosarcoma). The test is described as follows: In vitro cytotoxicity, Calcein AM assay, HOS. Type of test: cell-based. Particulars: Homo sapiens, 72 h, 3-day Calcein-AM assay. An excerpt:
(§2) Because toxic compounds adversely affect cell metabolic processes, many standard cytotoxicity assays are based on measuring the rate of metabolism of various artificial substrates. The resulting product is then quantified, for example, by spectrometry. Assays can be easily modified for use in 96-well plates, A microtiter assay based on the quantification of Calcein AM metabolism was used to evaluate the cytotoxicity of cytokinins, for example meta-topolin, ortho-topolin, kinetin, BAP or its mesylate salts, but also a number of other cytokinin mesylate derivatives according to the invention. The test is widely used in drug screening programs and in chemosensitivity testing. In living cells, Calcein AM is enzymatically hydrolyzed and the accumulation of the resulting calcein is manifested by green fluorescence. […] These cells were maintained in standard DMEM or RPMI medium (Sigma, MO, USA) supplemented with heat-inactivated fetal bovine serum (10%) with 2 mM L-glutamine and penicillin-streptomycin (1%) under standard cell culture conditions (37° C., 5% CO2 in a humid environment) and subcultured two or three times a week using a standard trypsinization procedure. Approximately 10,000 cells in 80 μl of medium were seeded in a 96-well microtiter plate. After 12 hours of incubation, the compounds to be tested were added in 20 μl aliquots. Control cultures were treated with DMSO alone. […] After 72 hours of incubation, Calcein AM solution (Molecular Probes) was added to a final concentration of 1 μg/ml and the cells were incubated for another hour.
(§3) Cytoxicity of compounds was tested on panel of cell lines of different histogenetic and species origin.

The subject of test [3] is G361 (malignant melanoma). The test is described as follows: In vitro cytotoxicity, Calcein AM assay, G-361. Particulars: Homo sapiens, 72 h, 3-day Calcein-AM assay. In kind it is cell-based.
Excerpt: Because toxic compounds adversely affect cell metabolic processes, many standard cytotoxicity assays are based on measuring the rate of metabolism of various artificial substrates. The resulting product is then quantified, for example, by spectrometry. Assays can be easily modified for use in 96-well plates, A microtiter assay based on the quantification of Calcein AM metabolism was used to evaluate the cytotoxicity of cytokinins, for example meta-topolin, ortho-topolin, kinetin, BAP or its mesylate salts, but also a number of other cytokinin mesylate derivatives according to the invention. The test is widely used in drug screening programs and in chemosensitivity testing. In living cells, Calcein AM is enzymatically hydrolyzed and the accumulation of the resulting calcein is manifested by green fluorescence. The following cell lines—RPMI 8226 (multiple myeloma), CEM (T-lymphoblastic leukemia), K562 (chronic myeloid leukemia), HL-60 (promyelocytic, leukemia), MCF-7 (breast adenocarcinoma), HeLa (cervical cancer), G361 (malignant melanoma), HOS (human osteosarcoma) and BJ (human foreskin fibroblasts)—were obtained from the American Type Culture Collection (Manassas, VA, USA). These cells were maintained in standard DMEM or RPMI medium (Sigma, MO, USA) supplemented with heat-inactivated fetal bovine serum (10%) with 2 mM L-glutamine and penicillin-streptomycin (1%) under standard cell culture conditions (37° C., 5% CO2 in a humid environment) and subcultured two or three times a week using a standard trypsinization procedure. Approximately 10,000 cells in 80 μl of medium were seeded in a 96-well microtiter plate. After 12 hours of incubation, the compounds to be tested were added in 20 μl aliquots. Control cultures were treated with DMSO alone. […] Serial, 3-fold dilutions (six in total, peak concentrations in 166 μM incubations) of each compound were tested. After 72 hours of incubation, Calcein AM solution (Molecular Probes) was added to a final concentration of 1 μg/ml and the cells were incubated for another hour. Free calcein fluorescence was then quantified using a Fluoroscan Ascent fluorometer (Microsystems), and the percentage of surviving cells in each well was calculated by dividing the OD obtained from each cell by the exposed cells by the mean OD obtained from control wells×100%, Finally, IC50 values (concentration causing a 50% decrease in cellular esterase activity) were calculated for each compound generated from dose-response curves (Krys̆tof et al., 2005, Bioorg. Med. Chem. Lett. 12, 3283-3286). The IC50 values reported here are averages obtained from at least three independent experiments, where the individual replication values fell within 20% of the average. Growth inhibition was calculated using the following equation: […](mean FDwell exposed to drug−mean FDblank)/(mean FDcontrol well−mean FDblank)×100%.
as §3

Test [4] has as its system cytokinin-dependent tobacco callus. Put plainly: Tobacco callus biotest (stimulation of plant cell division). Type of test: cell-based, Nicotiana tabacum L. cv. Wisconsin 38. As to conditions: callus growth at concentration with highest activity; 10^−5 M BAP = 100%.
Test [5] relates to K562 (chronic myeloid leukemia). The test is described as follows: In vitro cytotoxicity, Calcein AM assay, K-562. Type of test: cell-based. As to conditions: Homo sapiens, K562, 72 h, 3-day Calcein-AM assay. In short, it runs like this: as §1
In test [6] the test system is HL-60 (promyelocytic, leukemia). The test is described as follows: In vitro cytotoxicity, Calcein AM assay, HL60. Type of test: cell-based. As to conditions: Homo sapiens, HL-60, 72 h, 3-day Calcein-AM assay.
Excerpt: as §2, §3

Regarding `Clc1ccccc1CNc1ncnc2nc[nH]c12` [2ClBAP, 6-(2-chlorobenzylamino)purine], the IC50 in the test with NIH-3T3 was greater than 167 µM; in test [1], 58.4 µM; in test [2] it was 164 µM; in the test with HOS (human osteosarcoma), 84.9 µM; in test [3] it was 56.6 µM; in test [5], 101 µM. In addition, the concentration for half-maximal inhibition (IC50) in test [6] is 110 µM. In test [4], the “activity (%) [10^−5 mol · l^−1 BAP = 100%]” value was found to be 93%.
`Fc1ccccc1CNc1ncnc2nc[nH]c12` [2FBAP, 6-(2-fluorobenzylamino)purine]: the IC50 in test [1] is 98 µM; in test [2] it was greater than 167 µM; in the test on HOS (human osteosarcoma), greater than 167 µM; in test [3], 106 µM; in test [5], 136 µM.
Take `Clc1cccc(CNc2ncnc3nc[nH]c23)c1` [3ClBAP, 6-(3-chlorobenzylamino)purine]: the IC50 in test [1] is greater than 167 µM; in test [2] it was greater than 167 µM; in the test with HOS (human osteosarcoma) it was greater than 167 µM; in test [3], 149 µM; in test [6], greater than 167 µM. The “activity (%) [10^−5 mol · l^−1 BAP = 100%]” value in test [4] came to 94%.
Take `Fc1cccc(CNc2ncnc3nc[nH]c23)c1` [3FBAP, 6-(3-fluorobenzylamino)purine]: the IC50 in test [1] is greater than 167 µM; in test [2], 163 µM; in the test on HOS (human osteosarcoma), greater than 167 µM; in test [3], greater than 167 µM; in test [5], 105 µM; in test [6], greater than 167 µM.
Take `Fc1ccc(CNc2ncnc3nc[nH]c23)cc1` [4FBAP, 6-(4-fluorobenzylamino)purine]: the IC50 in test [1] was 66.4 µM; in test [2], greater than 167 µM; in the test with HOS (human osteosarcoma), greater than 167 µM; in test [3], greater than 167 µM; in test [5], greater than 167 µM; in test [6] it was 59.2 µM.
As to `COc1ccc(CNc2ncnc3nc[nH]c23)cc1` [4MeOBAP, 6-(4-methoxybenzylamino)purine], the IC50 was greater than 167 µM in the test on NIH-3T3; greater than 167 µM in test [1]; greater than 167 µM in test [2]; greater than 167 µM in the test on HOS (human osteosarcoma); no less than 167 µM in test [3]; greater than 167 µM in test [5]. Also, the IC50 in test [6] is greater than 167 µM.

A word on the IC50: it is the midpoint of a concentration-inhibition curve.
